Test results taken from US20040072907A1, “Antipicornaviral compounds, compositions containing them, and methods for their use” (priority 1997, published 2004).
pEC50: −log10 of the molar value. Read-outs that look alike come from different tables or passages of the source.

Tests used:
[1] = system: HRV serotype 16; assay: Antirhinoviral HI-HeLa cell culture assay (XTT cell protection), HRV-16; format: cell-based, human rhinovirus; conditions: HRV serotype 16, HI-HeLa cells
Description: (§1) In the Cell Protection Assay, the ability of compounds to protect cells against HRV infection was measured by the XTT dye reduction method. This method is described in Weislow, O. S., Kiser, R., Fine, D. L., Bader, J., Shoemaker, R. H., Boyd, M. R., J. Natl. Cancer Inst. 1989, 81, 577-586, the disclosure of which is incorporated herein by reference.
(§2) Infected or mock-infected cells were resuspended at 8×10^5 cells per mL and incubated with appropriate concentrations of compounds of formula I. Two days later, XTT/PMS was added to test plates, and the amount of formazan produced was quantified spectrophotometrically at 450/650 nm. […] The therapeutic index (TI) was calculated by dividing the CC50 by the EC50.
(§3) All strains of human rhinovirus (HRV) for use in this assay were purchased from American Type Culture Collection (ATCC) except for HRV serotype-14, which was produced from the infectious cDNA clone constructed and supplied to Applicants by Dr. Robert Rueckert at the Institute for Molecular Virology, University of Wisconsin, Madison, Wis. HRV stocks were propagated, and viral assays were performed in HI-HeLa cells (ATCC). Cells were grown in Minimal Essential Medium, available from Life Technologies, with 10% fetal bovine serum.
(§4) The compounds were tested against control compounds WIN 51711, WIN 52084, and WIN 54954, all obtained from Sterling-Winthrop Pharmaceuticals, and control compound Pirodavir, obtained from Janssen Pharmaceuticals. Antiviral data obtained for the test compounds are shown in Table 2 where all data are for HRV serotype-14 unless otherwise noted in parentheses.

[2] = system: HRV serotype 2; assay: Antirhinoviral HI-HeLa cell culture assay (XTT cell protection), HRV-2; format: cell-based, human rhinovirus; conditions: HRV serotype 2, HI-HeLa cells
Description: as §1, §2, §3, §4

[3] = system: HRV serotype 10; assay: Antirhinoviral HI-HeLa cell culture assay (XTT cell protection), HRV-10; format: cell-based, human rhinovirus; conditions: HRV serotype 10, HI-HeLa cells
Description: as §1, §2, §3, §4

[4] = system: HRV serotype-14; assay: Antirhinoviral HI-HeLa cell culture assay (XTT cell protection), HRV-14; format: cell-based, human rhinovirus
Description: as §1, §2, §3, §4

[5] = system: HRV serotype 89; assay: Antirhinoviral HI-HeLa cell culture assay (XTT cell protection), HRV-89; format: cell-based, human rhinovirus; conditions: HRV serotype 89, HI-HeLa cells
Description: as §1, §2, §3, §4

[6] = Cytotoxicity in mock-infected HI-HeLa cells (XTT, antirhinoviral assay); format: cell-based; conditions: human; mock-infected HI-HeLa cells; line for HRV serotype-14
Description: as §1, §2
(§5) HRV stocks were propagated, and viral assays were performed in HI-HeLa cells (ATCC). Cells were grown in Minimal Essential Medium, available from Life Technologies, with 10% fetal bovine serum.

[7] = system: Coxsackie strain A-21 (CVA-21); assay: Anticoxsackieviral HI-HeLa cell culture assay (XTT cell protection); format: cell-based; conditions: CVA-21, HI-HeLa cells, m.o.i. 0.05, one day
Description: (§6) The Coxsackie strain A-21 (CVA-21) was purchased from American Type Culture Collection (ATCC). Virus stocks were propagated, and antiviral assays were performed in HI-HeLa cells (ATCC). Cells were grown in Minimal Essential Medium with 10% fetal bovine serum.
The ability of compounds to protect cells against CVA-21 infection was measured by the XTT dye reduction method. This method is described in Weislow, O. S., Kiser, R., Fine, D. L., Bader, J., Shoemaker, R. H., Boyd, M. R., J. Natl. Cancer Inst. 1989, 81, 577-586, the disclosure of which is incorporated herein by reference. […] Infected or uninfected cells were resuspended at 4×10^4 cells per mL and incubated with appropriate concentrations of drug. One day later, XTT/PMS was added to test plates, and the amount of formazan produced was quantified spectrophotometrically at 450/650 nm. […] The therapeutic index (TI) was calculated by dividing the CC50 by the EC50.
The compounds were tested against control compound WIN 54954, obtained from Sterling-Winthrop Pharmaceuticals, and control compound Pirodavir, obtained from Janssen Pharmaceuticals.

[8] = Cytotoxicity in uninfected HI-HeLa cells (XTT, anticoxsackieviral assay); format: cell-based; conditions: human, one day
Description: as §6
(§7) The ability of compounds to protect cells against CVA-21 infection was measured by the XTT dye reduction method. This method is described in Weislow, O. S., Kiser, R., Fine, D. L., Bader, J., Shoemaker, R. H., Boyd, M. R., J. Natl. Cancer Inst. 1989, 81, 577-586, the disclosure of which is incorporated herein by reference. HI-HeLa cells were infected with CVA-21 at a multiplicity of infection (m.o.i.) of 0.05 (CVA-21) or mock-infected with medium only. Infected or uninfected cells were resuspended at 4×10^4 cells per mL and incubated with appropriate concentrations of drug. One day later, XTT/PMS was added to test plates, and the amount of formazan produced was quantified spectrophotometrically at 450/650 nm. […] The therapeutic index (TI) was calculated by dividing the CC50 by the EC50.

[9] = target: T1, Recombinant Rhinovirus 3C protease serotype 14 (Human rhinovirus 14, UniProt P03303); assay: biochemical; conditions: RVP serotype-14, progress curves, enzyme start experiments
T1 construct: Recombinant Rhinovirus 3C proteases from serotypes 14, 16, and 2; made in house
T1 sequence (P03303 1538-1719): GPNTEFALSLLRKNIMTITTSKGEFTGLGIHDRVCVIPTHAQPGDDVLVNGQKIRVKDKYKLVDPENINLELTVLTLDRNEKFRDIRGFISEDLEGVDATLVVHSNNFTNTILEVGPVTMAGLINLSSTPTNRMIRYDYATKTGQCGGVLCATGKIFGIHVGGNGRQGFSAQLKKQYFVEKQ
Description: Stock solutions (50 mM, in DMSO) of various compounds were prepared; dilutions were in the same solvent. […] Assays contained 2% DMSO, 50 mM tris pH 7.6, 1 mM EDTA, a compound at the indicated concentrations, approximately 1 μM substrate, and 50-100 nM protease. […] The kobs/I values were obtained from reactions initiated by addition of enzyme rather than substrate. RVP activity is measured in the fluorescence resonance energy transfer assay. […] In the uncleavaed peptide, the EDANS fluorescence was quenched by the proximal DABCYL moiety. When the peptide was cleaved, the quenching was relieved, and activity was measured as an increase in fluorescence signal.
The data in the column designated kobs/I was measured from progress curves enzyme start experiments.

[10] = system: HRV serotype 1A; assay: Antirhinoviral HI-HeLa cell culture assay (XTT cell protection), HRV-1A; format: cell-based, human rhinovirus; conditions: HI-HeLa cells
Description: as §1, §2, §3, §4

[11] = system: HI-HeLa cells; assay: Cytotoxicity in mock-infected HI-HeLa cells (XTT, antirhinoviral assay); format: cell-based; conditions: mock-infected HI-HeLa cells, read-out: CC50
Description: as §1, §2, §5

[12] = system: HRV serotype 39; assay: Antirhinoviral HI-HeLa cell culture assay (XTT cell protection), HRV-39; format: cell-based, human rhinovirus; conditions: HRV serotype 39, HI-HeLa cells
Description: as §1, §2, §3, §4

[13] = system: HI-HeLa cells; assay: Cytotoxicity in uninfected HI-HeLa cells (XTT, anticoxsackieviral assay); format: cell-based; conditions: one day
Description: as §6, §7

[14] = HRV serotype-14, HI-HeLa cells, m.o.i. 0.13, two days, XTT, read-out: EC50

Ethyl-3-(CBZ-L-LeuΨ[COCH2]-D/L-Phe-L-Gln)-E-Propenoate [Compound 1 + 9 (˜1:1)]
pEC50 [1]: 5.55
pEC50 [2]: 5.70
pEC50 [3]: 5.39
pEC50 [4, 14]: 5.89
pEC50 [5]: 5.29

CCOC(=O)c1ccc(OCCC2CCN(c3ccc(C)nn3)CC2)cc1 [Pirodavir, reference compound]
CC50 at 2 days [6]: > 10000 nM
pEC50 ([4]; Human rhinovirus sp., 48 h, HRV serotype-14, HI-HeLa cells, m.o.i. 0.13, two days, XTT, read-out: EC50): 7.52
pEC50 ([7]; 24 h): < 4.00
CC50 at 1 day [8]: > 100000 nM

CC(C)CC(NC(=O)SCc1ccccc1)C(=O)CC(Cc1ccccc1)C(=O)NC(C=CC(=O)N1CCc2ccccc21)CCC(N)=O [Compound 3, (2,3-Dihydroindole)-3-(BnSCO-L-LeuΨ[COCH2]-L-Phe-L-Gln)-E-Propenamide]
CC50 at 2 days [6]: 50100 nM
pEC50 ([4]; Human rhinovirus sp., 48 h): 5.72
kinact/KI ([9]; read-out: kobs/I): 29200 M⁻¹ s⁻¹

CCOC(=O)/C=C/C(CCC(N)=O)NC(=O)C(CC(=O)C(CC(C)C)NC1CCCC1)Cc1ccc(F)cc1 (stereo not drawn) [Compound 19]
pEC50 [2]: 6.15
pEC50 [10]: 6.22
pEC50 [3]: 5.80
CC50 ([11]; line for HRV serotype 1A): > 3000 nM
CC50 ([11]; line for HRV serotype 2): > 3000 nM
CC50 ([11]; line for HRV serotype 10): > 3000 nM
CC50 ([11]; line for HRV serotype-14): > 3000 nM
pEC50 [4, 14]: 6.55
kobs/I [9]: 67,200 M^−1sec^−1

CCOC(=O)/C=C/[C@H](CCC(N)=O)NC(=O)[C@@H](CC(=O)[C@@H](NC(=O)OC1CCCC1)C(C)C)Cc1ccc(F)cc1 [Compound 25, Ethyl-3-(CyPentylOCO-L-ValΨ[COCH2]-L-(p-F)Phe-L-Gln)-E-Propenoate]
pEC50 [1]: 6.15
pEC50 [12]: 6.25
pEC50 [10]: 6.05
pEC50 [3]: 5.77
CC50 ([11]; line for HRV serotype 1A): > 3000 nM
CC50 ([11]; line for HRV serotype 2): > 3000 nM
CC50 ([11]; line for HRV serotype 10): > 3000 nM
CC50 ([11]; line for HRV serotype 16): > 3000 nM
CC50 ([11]; line for HRV serotype 39): > 3000 nM
CC50 ([11]; line for HRV serotype 89): > 3000 nM
CC50 ([11]; line for HRV serotype-14): > 3000 nM
pEC50 [4, 14]: 6.85
pEC50 [5]: 6.49

CCOC(=O)/C=C/C(CCC(N)=O)NC(=O)C(CC(=O)C(NC(=O)OC1CCCC1)C(C)C)Cc1ccc(C)cc1 (stereo not drawn) [Compound 20]
pEC50 [1]: 6.82
pEC50 [2]: 6.25
pEC50 [12]: 5.92
pEC50 [10]: 6.28
CC50 ([11]; line for HRV serotype 1A): > 3000 nM
CC50 ([11]; line for HRV serotype 2): > 3000 nM
CC50 ([11]; line for HRV serotype 10): > 3000 nM
CC50 ([11]; line for HRV serotype 16): > 3000 nM
CC50 ([11]; line for HRV serotype 39): > 3000 nM
CC50 ([11]; line for HRV serotype 89): > 3000 nM
CC50 ([11]; line for HRV serotype-14): > 3000 nM
pEC50 [4, 14]: 7.38
pEC50 [5]: 6.33

CCOC(=O)/C=C/C(CCC(N)=O)NC(=O)C(CC(=O)C(CC(C)C)NC(=O)SC1CCCC1)Cc1ccc(C)cc1 [Compound 21, Ethyl-3-(CyPentylSCO-L-LeuΨ[COCH2]-L-(p-CH3)Phe-L-Gln)-E-Propenoate]
pEC50 [2]: 6.00
pEC50 [10]: 6.25
pEC50 [3]: 5.85
CC50 ([11]; line for HRV serotype 1A): > 10000 nM
CC50 ([11]; line for HRV serotype 2): > 10000 nM
CC50 ([11]; line for HRV serotype 10): > 10000 nM
CC50 ([11]; line for HRV serotype-14): > 10000 nM

Cc1cc(CCCCCOc2c(Cl)cc(C3=NCCO3)cc2Cl)on1 [WIN 54954, reference compound]
CC50 ([11]; line for HRV serotype-14): > 63000 nM
pEC50 [4, 14]: 5.67
pEC50 [7]: < 4.00
CC50 [13]: > 100000 nM

CCOC(=O)/C=C/C(CCC(N)=O)NC(=O)C(CC(=O)C(NC(=O)SC1CCCC1)C(C)C)Cc1ccccc1 [Compound 7, Ethyl-3-(CyPentylSCO-L-ValΨ[COCH2]-L-Phe-L-Gln)-E-Propenoate]
CC50 ([11]; line for HRV serotype 2): > 10000 nM
CC50 ([11]; line for HRV serotype 10): > 10000 nM
CC50 ([11]; line for HRV serotype 39): > 10000 nM
CC50 ([11]; line for HRV serotype 89): > 10000 nM
CC50 [13]: > 10000 nM
